Structure (SMILES)	melting point [°C]
CC(C)=CC1C[C@@](C)(O[C@@H]2OC[C@H](O)C(O)C2O)C2C3CCC4[C@@]5(C)CC[C@H](O[C@@H]6OC[C@H](O)C(O[C@@H]7OC(CO)[C@@H](O)C(O)C7O)C6O[C@@H]6O[C@@H](CO)C(O)C6O)C(C)(C)C5CC[C@@]4(C)[C@@]34CO[C@@]2(C4)O1 (stereo partly drawn)	248 to 256
CC(C)=CC1C[C@@](C)(O[C@@H]2OC[C@H](O)C(O)C2O)C2C3CCC4[C@@]5(C)CC[C@H](O[C@@H]6OC(CO)[C@@H](O)C(O[C@@H]7OC(CO)[C@@H](O)C(O)C7O)C6O[C@@H]6O[C@@H](CO)C(O)C6O)C(C)(C)C5CC[C@@]4(C)[C@@]34CO[C@@]2(C4)O1 (stereo partly drawn)	246 to 258
CC(C)=C[C@H]1CO[C@]23C[C@]4(CO2)C(CCC2[C@@]5(C)CC[C@H](O[C@@H]6OC(CO)[C@@H](O)C(O[C@@H]7OC(CO)[C@@H](O)C(O)C7O)C6O)C(C)(C)C5CC[C@]24C)C3[C@]1(C)O (stereo partly drawn)	278 to 282

Reference: US8541381B2, “Process for producing enriched fractions containing up to 100% of bacopasaponins from the plant materials of bacopa species” (Laila Impex, priority 2005, dated 2013)
